Each structure is given as a SMILES string.

Among the data in patent US11180474B2 (BRISTOL-MYERS SQUIBB COMPANY, priority 2016, dated 2021) are IC50 values, retold here.

One assay has as its target T1, human TLR9 (Homo sapiens, UniProt Q9NR96).
T1 construct: host or cells: HEK-Blue cells
T1 sequence (Q9NR96 26-1032): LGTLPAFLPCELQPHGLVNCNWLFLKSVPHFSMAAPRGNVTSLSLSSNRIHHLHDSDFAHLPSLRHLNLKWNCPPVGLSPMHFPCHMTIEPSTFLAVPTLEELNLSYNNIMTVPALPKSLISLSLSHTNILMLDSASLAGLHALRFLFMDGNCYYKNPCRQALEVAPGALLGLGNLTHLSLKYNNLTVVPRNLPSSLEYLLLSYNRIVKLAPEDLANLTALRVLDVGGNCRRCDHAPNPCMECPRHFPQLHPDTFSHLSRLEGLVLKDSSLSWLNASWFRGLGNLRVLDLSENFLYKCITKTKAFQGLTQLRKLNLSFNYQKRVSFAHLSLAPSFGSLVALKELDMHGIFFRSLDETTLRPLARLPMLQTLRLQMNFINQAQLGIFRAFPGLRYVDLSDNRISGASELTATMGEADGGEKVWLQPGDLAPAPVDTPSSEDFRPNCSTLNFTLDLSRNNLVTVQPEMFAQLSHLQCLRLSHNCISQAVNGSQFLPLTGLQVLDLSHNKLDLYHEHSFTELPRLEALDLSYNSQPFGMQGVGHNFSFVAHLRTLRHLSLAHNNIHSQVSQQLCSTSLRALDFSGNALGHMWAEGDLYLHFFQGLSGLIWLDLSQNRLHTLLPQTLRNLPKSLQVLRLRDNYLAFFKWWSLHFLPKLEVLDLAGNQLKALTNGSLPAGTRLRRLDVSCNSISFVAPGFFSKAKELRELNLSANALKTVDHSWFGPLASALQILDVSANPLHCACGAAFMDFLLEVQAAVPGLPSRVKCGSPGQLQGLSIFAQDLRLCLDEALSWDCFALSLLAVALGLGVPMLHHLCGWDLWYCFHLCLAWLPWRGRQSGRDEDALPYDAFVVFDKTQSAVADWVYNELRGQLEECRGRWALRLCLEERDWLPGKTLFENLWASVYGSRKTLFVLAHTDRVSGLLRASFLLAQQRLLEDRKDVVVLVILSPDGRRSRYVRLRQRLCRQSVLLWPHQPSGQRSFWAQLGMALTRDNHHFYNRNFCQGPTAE
As to the kind of experiment: TLR9 inhibition reporter assay (HEK-Blue cells, SEAP reporter, ODN2006 stimulation). The class given is cell-based. Conditions: HEK-Blue cells overexpressing human TLR9, ODN2006 5 nM. Summed up: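 HEK-Blue cells overexpressing human TLR7, TLR8 or TLR9 carry a SEAP reporter driven by NF-κB/AP-1 sites. Compounds (0.05 nM–50 μM) were preincubated 30 min at room temperature, then cells were stimulated with gardiquimod 7.5 μM (TLR7), R848 15.9 μM (TLR8) or ODN2006 5 nM (TLR9) for 22 h at 37 °C.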
On the technique in general: In a reporter assay the amount or activity of a reporter protein is the signal.

The target in the next assay is T2, human TLR7 (Homo sapiens, UniProt Q9NYK1).
T2 construct: host or cells: HEK-Blue cells
T2 sequence (Q9NYK1 27-1049): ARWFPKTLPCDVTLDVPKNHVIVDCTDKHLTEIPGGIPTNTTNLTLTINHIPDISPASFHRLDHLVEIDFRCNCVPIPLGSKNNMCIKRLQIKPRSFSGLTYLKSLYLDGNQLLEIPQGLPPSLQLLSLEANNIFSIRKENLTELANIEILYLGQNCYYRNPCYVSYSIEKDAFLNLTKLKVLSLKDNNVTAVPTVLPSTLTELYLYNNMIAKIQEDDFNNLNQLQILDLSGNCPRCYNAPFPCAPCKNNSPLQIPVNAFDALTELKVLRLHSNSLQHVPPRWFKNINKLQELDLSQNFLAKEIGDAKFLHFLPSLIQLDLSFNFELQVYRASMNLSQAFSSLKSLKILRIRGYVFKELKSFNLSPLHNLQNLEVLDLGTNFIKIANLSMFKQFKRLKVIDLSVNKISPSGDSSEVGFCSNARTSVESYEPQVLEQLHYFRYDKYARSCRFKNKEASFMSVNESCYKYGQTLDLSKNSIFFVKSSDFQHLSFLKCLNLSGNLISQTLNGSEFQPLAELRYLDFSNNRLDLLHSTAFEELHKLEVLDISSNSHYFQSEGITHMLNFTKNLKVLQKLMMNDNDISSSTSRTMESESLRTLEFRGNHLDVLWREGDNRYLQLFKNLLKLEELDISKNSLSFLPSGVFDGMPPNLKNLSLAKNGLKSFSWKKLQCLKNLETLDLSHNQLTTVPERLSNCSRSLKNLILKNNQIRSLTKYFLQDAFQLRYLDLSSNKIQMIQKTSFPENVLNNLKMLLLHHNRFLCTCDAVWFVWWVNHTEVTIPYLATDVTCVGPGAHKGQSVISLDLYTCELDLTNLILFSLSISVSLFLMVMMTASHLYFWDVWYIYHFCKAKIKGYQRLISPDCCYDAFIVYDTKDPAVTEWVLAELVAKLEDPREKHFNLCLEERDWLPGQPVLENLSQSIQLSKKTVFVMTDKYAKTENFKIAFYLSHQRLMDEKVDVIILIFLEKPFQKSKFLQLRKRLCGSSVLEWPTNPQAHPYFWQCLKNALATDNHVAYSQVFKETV
Put plainly: TLR7 inhibition reporter assay (HEK-Blue cells, SEAP reporter, gardiquimod stimulation). The class given is cell-based. Conditions: HEK-Blue cells overexpressing human TLR7, gardiquimod 7.5 μM. The essentials:
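SEAP readout via HEK-Blue Detection medium after 22 h at 37 °C, 5% CO2 defines inhibition, normalized between agonist-plus-DMSO wells and a reference inhibitor. Compound dose range 0.05 nM–50 μM; TLR7 cells at 15,000/well (gardiquimod), TLR8 at 20,000/well (R848).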

For the molecule `COc1ccc(-c2[nH]c3ccc(C4CCN(C(=O)CN5CCCN(C(C)=O)CC5)CC4)cc3c2C(C)C)cc1OC` [Example 222, 2-(4-acetyl-1,4-diazepan-1-yl)-1-(4-(2-(3,4-dimethoxyphenyl)-3-isopropyl-1H-indol-5-yl)piperidin-1-yl)ethan-1-one], the half-maximal inhibitory concentration (IC50) (as a rule, the midpoint of a concentration-inhibition curve) against human TLR9 worked out at 6880 nM; against human TLR7, 45 nM.

Regarding `COc1ccc(-c2[nH]c3ccc(C4CCN(C(=O)CN5CCCC(C(=O)NC6CCN(C(C)C)CC6)C5)CC4)cc3c2C(C)C)cc1OC` (single isomer, unassigned) [Example 281, 1-(2-(4-(2-(3,4-dimethoxyphenyl)-3-isopropyl-1H-indol-5-yl)piperidin-1-yl)-2-oxoethyl)-N-(1-isopropylpiperidin-4-yl)piperidine-3-carboxamide], the IC50 was 586 nM on human TLR9 and 17 nM at human TLR7.

On to `COc1ccc(-c2[nH]c3ccc(C4CCN(C(=O)CNCCOCCO)CC4)cc3c2C(C)C)cc1OC` [Example 230, 1-(4-(2-(3,4-dimethoxyphenyl)-3-isopropyl-1H-indol-5-yl)piperidin-1-yl)-2-((2-(2-hydroxyethoxy)ethyl)amino)ethan-1-one], for which the IC50 on human TLR9 worked out at 2200 nM; against human TLR7, 19 nM.

Turning to `COc1ccc(-c2[nH]c3ccc(C4CCN(Cc5cnc[nH]5)CC4)cc3c2C(C)C)cc1OC` [Example 268, 5-(1-((1H-imidazol-5-yl)methyl)piperidin-4-yl)-2-(3,4-dimethoxyphenyl)-3-isopropyl-1H-indole], the IC50 against human TLR9 was found to be 1480 nM; on human TLR7 it was 31 nM.

`COc1ccc(-c2[nH]c3ccc(C4CCN(C(=O)CNC5CCC(O)CC5)CC4)cc3c2C(C)C)cc1OC` (centres unmarked) [Example 246, 1-(4-(2-(3,4-dimethoxyphenyl)-3-isopropyl-1H-indol-5-yl)piperidin-1-yl)-2-((4-hydroxycyclohexyl)amino)ethan-1-one]: the values for the IC50 at human TLR9 and against human TLR7 were 664 nM and 11 nM, respectively.

Take `COc1ccc(-c2[nH]c3ccc(C4CCN(C(=O)CN5CCCC(C(=O)NC6CCN(C(C)C)CC6)C5)CC4)cc3c2C(C)C)cc1OC` (single isomer, unassigned) [Example 280, 1-(2-(4-(2-(3,4-dimethoxyphenyl)-3-isopropyl-1H-indol-5-yl)piperidin-1-yl)-2-oxoethyl)-N-(1-isopropylpiperidin-4-yl)piperidine-3-carboxamide]: the IC50 came to 417 nM against human TLR9 and 26 nM on human TLR7.

`COc1ccc(-c2[nH]c3ccc(C4CCN(C(=O)CN[C@H](CO)CC(C)C)CC4)cc3c2C(C)C)cc1OC` [Example 231, (S)-1-(4-(2-(3,4-dimethoxyphenyl)-3-isopropyl-1H-indol-5-yl)piperidin-1-yl)-2-((1-hydroxy-4-methylpentan-2-yl)amino)ethan-1-one]: the figures for the IC50 against human TLR9 and against human TLR7 were 1930 nM and 96 nM, respectively.

`COc1ccc(-c2[nH]c3ccc(C4CCN(C(=O)CNC[C@@H](F)C(C)(C)O)CC4)cc3c2C(C)C)cc1OC` [Example 251, (R)-1-(4-(2-(3,4-dimethoxyphenyl)-3-isopropyl-1H-indol-5-yl)piperidin-1-yl)-2-((2-fluoro-3-hydroxy-3-methylbutyl)amino) ethan-1-one]: the IC50 against human TLR9 came to 15300 nM; at human TLR7 it was 372 nM.

As to `COc1ccc(-c2[nH]c3ccc(C4CCN(CC(=O)N[C@H]5CC[C@H](C(C)(C)O)CC5)CC4)cc3c2C(C)C)cc1OC` [Example 279, 2-(4-(2-(3,4-dimethoxyphenyl)-3-isopropyl-1H-indol-5-yl)piperidin-1-yl)-N-((1r,4r)-4-(2-hydroxypropan-2-yl)cyclohexyl)acetamide], the IC50 on human TLR9 was found to be 18000 nM; against human TLR7, 495 nM.

With `COc1ccc(-c2[nH]c3ccc(C4CCN(C(=O)CN5CCC[C@H](C(=O)N6CCN(c7cccc(C(F)(F)F)c7)CC6)C5)CC4)cc3c2C(C)C)cc1OC` [Example 290, (S)-1-(4-(2-(3,4-dimethoxyphenyl)-3-isopropyl-1H-indol-5-yl)piperidin-1-yl)-2-(3-(4-(3-(trifluoromethyl)phenyl)piperazine-1-carbonyl)piperidin-1-yl)ethan-1-one], the IC50 is 5340 nM at human TLR9 and 1740 nM against human TLR7.

As for `CNCC(=O)N1CCC(c2ccc3[nH]c(-c4ccc(OC)c(OC)c4)c(C(C)C)c3c2)CC1` [Example 256, 1-(4-(2-(3,4-dimethoxyphenyl)-3-isopropyl-1H-indol-5-yl)piperidin-1-yl)-2-(methylamino)ethan-1-one], the half-inhibitory concentration (IC50) against human TLR9 was determined as 2320 nM; against human TLR7 it was 11 nM.

As for `COc1ccc(-c2[nH]c3ccc(C4CCN(C(=O)CN5CCC[C@H](C(=O)NCCNC(C)=O)C5)CC4)cc3c2C(C)C)cc1OC` [Example 295, (S)—N-(2-acetamidoethyl)-1-(2-(4-(2-(3,4-dimethoxyphenyl)-3-isopropyl-1H-indol-5-yl)piperidin-1-yl)-2-oxoethyl) piperidine-3-carboxamide], the IC50 was 5310 nM at human TLR9 and 50 nM against human TLR7.

For `COc1ccc(-c2[nH]c3ccc(C4CCN(C(=O)COC(C)C)CC4)cc3c2C(C)C)cc1OC` [Example 314, 1-(4-(2-(3,4-dimethoxyphenyl)-3-isopropyl-1H-indol-5-yl)piperidin-1-yl)-2-isopropoxyethan-1-one], the IC50 against human TLR9 came to 26600 nM; at human TLR7, 284 nM.

Take `COc1ccc(-c2[nH]c3ccc(C4CCN(C(=O)CN5CCCC(CO)C5)CC4)cc3c2C(C)C)cc1OC` (centres unmarked) [Example 226, 1-(4-(2-(3,4-dimethoxyphenyl)-3-isopropyl-1H-indol-5-yl)piperidin-1-yl)-2-(3-(hydroxymethyl)piperidin-1-yl)ethan-1-one]: the IC50 against human TLR9 was found to be 1420 nM; at human TLR7, 16 nM.

Take `COc1ccc(-c2[nH]c3ccc(C4CCN(CC(=O)N5CCCC(CO)C5)CC4)cc3c2C(C)C)cc1OC` (centres unmarked) [Example 275, 2-(4-(2-(3,4-dimethoxyphenyl)-3-isopropyl-1H-indol-5-yl)piperidin-1-yl)-1-(3-(hydroxymethyl)piperidin-1-yl)ethan-1-one]: the IC50 at human TLR9 came out at 1660 nM; at human TLR7, 17 nM.

Take `COc1ccc(-c2[nH]c3ccc(C4CCN(C(=O)CN5CCCC(CO)C5)CC4)cc3c2C(C)C)cc1OC` (centres unmarked) [Example 249, 1-(4-(2-(3,4-dimethoxyphenyl)-3-isopropyl-1H-indol-5-yl)piperidin-1-yl)-2-(3-(hydroxymethyl)piperidin-1-yl)ethan-1-one]: the IC50 against human TLR9 is 780 nM; at human TLR7, 21 nM.
